Values quoted from earlier work, collected in patent publication US20160115147A1, “PRO-DRUG COMPOUNDS” (Proximagen Limited, priority 2013, published 2016).

Experiments:
[1] = system: unique stereo-selective site in rat brain
[2] = system: unique stereo-selective site in human brain

CC(=O)c1ccc2c(c1)[C@H](NC(=O)c1ccc(F)c(Cl)c1)[C@H](O)C(C)(C)O2 [Tonabersat]
binding affinity to unique stereo-selective site [1]: high affinity
binding affinity to unique stereo-selective site [2]: high affinity
